Data as given in patent US20120178786A9, “Use of tetramic acid derivatives for controlling pests by drenching, drip application, or dip application” (priority 2006, published 2012).

Tested on: Coccus viridis
Experiment: Example 11: drench of gardenia plants, Henderson-Tilton efficacy against nymphs
Type: in vivo
Settings: 48 mg active substance/1 potting compost, 20 G
Method: Gardenia plants cv. […] The greenhouse temperature is 27° C. The test is evaluated 7, 15, 21 and 35 days after the treatment by determining the activity against nymphs on the leaves with the aid of the Henderson-Tilton method.

CN/C(=N/CC1CCOC1)N[N+](=O)[O-] (stereo not shown) [Dinotefuran, dinotefuran]
Henderson-Tilton efficacy (%) against Coccus viridis (7 d after treatment): 0%
Henderson-Tilton efficacy (%) against Coccus viridis (15 d after treatment): 57%
Henderson-Tilton efficacy (%) against Coccus viridis (21 d after treatment): 85%
Henderson-Tilton efficacy (%) against Coccus viridis (35 d after treatment): 91%
